According to ChEMBL document CHEMBL1157938, “Cytotoxicity and inhibition of DNA topoisomerase I of polyhydroxylated triterpenoids and triterpenoid glycosides” (Bioorg Med Chem Lett, 2010):

Columns and labels:
PC-3 = test: Cytotoxicity against human PC3 cells after 48 hrs by WST8 assay; assay type: functional; details: PC-3, 48 h
A549 = test: Cytotoxicity against human A549 cells after 48 hrs by WST8 assay; assay type: functional; details: A549, 48 h
[1] = molecular target: DNA topoisomerase 2-alpha (Homo sapiens, UniProt P11388); test: Inhibition of human DNA topoisomerase 2-mediated relaxation of supercoiled DNA by gel electrophoresis
[2] = Cytotoxicity against human MRC5 cells after 48 hrs by WST8 assay; assay type: cell-based
DNA topoisomerase 1 = molecular target: T1, DNA topoisomerase 1 (Homo sapiens, UniProt P11387); test: Inhibition of human DNA topoisomerase 1-mediated relaxation of supercoiled DNA by gel electrophoresis
T1 sequence (P11387 whole entry): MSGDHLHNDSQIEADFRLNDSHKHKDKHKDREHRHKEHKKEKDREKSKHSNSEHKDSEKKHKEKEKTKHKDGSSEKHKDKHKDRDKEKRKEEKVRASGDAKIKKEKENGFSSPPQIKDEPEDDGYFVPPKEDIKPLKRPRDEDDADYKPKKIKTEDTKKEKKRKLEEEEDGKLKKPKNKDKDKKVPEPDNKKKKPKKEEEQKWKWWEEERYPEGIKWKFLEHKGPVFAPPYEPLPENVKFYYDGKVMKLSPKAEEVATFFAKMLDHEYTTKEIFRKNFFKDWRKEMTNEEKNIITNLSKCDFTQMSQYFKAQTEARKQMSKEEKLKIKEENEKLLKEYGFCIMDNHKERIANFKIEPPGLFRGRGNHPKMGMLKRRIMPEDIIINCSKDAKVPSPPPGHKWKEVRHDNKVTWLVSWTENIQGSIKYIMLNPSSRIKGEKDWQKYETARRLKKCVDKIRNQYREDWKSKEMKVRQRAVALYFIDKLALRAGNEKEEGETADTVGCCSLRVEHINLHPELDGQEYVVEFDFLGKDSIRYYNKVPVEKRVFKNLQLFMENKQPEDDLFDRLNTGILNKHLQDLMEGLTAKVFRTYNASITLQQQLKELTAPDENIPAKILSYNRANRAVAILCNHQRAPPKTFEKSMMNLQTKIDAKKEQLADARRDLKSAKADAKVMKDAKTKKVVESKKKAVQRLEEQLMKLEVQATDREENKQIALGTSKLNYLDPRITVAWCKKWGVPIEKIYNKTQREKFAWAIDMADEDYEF

PANC-1 = test: Cytotoxicity against human PANC1 cells after 48 hrs by WST8 assay; assay type: functional; details: PANC-1, 48 h
HL-60 = test: Cytotoxicity against human HL60 cells after 48 hrs by WST8 assay; assay type: functional; details: HL-60, 48 h

Chain of DNA topoisomerase 2-alpha (P11388 whole entry): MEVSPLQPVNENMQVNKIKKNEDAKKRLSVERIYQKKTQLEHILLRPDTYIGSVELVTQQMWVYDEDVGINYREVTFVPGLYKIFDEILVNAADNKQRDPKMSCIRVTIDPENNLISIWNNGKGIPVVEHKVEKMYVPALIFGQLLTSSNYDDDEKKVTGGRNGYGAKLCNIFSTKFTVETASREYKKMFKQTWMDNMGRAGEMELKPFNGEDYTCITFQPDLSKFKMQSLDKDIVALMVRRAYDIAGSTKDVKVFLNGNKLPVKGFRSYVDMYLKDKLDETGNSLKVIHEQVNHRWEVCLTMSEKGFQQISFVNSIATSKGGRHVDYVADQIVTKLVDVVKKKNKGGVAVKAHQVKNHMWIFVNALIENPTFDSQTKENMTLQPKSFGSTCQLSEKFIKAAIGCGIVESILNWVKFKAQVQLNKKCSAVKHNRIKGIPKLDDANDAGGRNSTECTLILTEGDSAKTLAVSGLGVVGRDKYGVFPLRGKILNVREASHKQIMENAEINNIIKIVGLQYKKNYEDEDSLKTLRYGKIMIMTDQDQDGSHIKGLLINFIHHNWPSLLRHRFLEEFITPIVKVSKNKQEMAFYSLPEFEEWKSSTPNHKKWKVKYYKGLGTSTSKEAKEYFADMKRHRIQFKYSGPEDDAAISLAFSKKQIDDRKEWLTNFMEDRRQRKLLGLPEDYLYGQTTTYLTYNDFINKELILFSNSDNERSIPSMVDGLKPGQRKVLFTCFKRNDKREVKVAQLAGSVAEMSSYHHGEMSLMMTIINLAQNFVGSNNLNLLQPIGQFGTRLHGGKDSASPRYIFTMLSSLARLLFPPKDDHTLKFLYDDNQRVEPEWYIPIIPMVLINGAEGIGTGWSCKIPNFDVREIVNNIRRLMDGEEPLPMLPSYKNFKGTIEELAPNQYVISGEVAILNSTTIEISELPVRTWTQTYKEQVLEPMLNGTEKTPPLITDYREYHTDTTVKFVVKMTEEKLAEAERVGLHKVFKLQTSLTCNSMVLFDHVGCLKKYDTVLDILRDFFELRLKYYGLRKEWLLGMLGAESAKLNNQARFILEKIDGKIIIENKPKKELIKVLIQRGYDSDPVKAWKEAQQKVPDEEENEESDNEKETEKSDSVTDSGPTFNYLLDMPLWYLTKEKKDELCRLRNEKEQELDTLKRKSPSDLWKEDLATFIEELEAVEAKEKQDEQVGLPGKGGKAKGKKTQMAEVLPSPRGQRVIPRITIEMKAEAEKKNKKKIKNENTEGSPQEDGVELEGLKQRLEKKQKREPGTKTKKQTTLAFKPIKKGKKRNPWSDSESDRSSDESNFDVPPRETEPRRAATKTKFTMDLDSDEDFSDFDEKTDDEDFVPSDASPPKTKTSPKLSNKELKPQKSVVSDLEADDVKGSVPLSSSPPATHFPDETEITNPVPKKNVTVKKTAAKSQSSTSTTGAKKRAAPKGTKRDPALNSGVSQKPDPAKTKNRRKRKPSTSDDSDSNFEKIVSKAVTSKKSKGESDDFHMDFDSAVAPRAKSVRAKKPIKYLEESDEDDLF

Structure (SMILES)	IC50 [1]	IC50 (DNA topoisomerase 1)	GI50 (PC-3)	GI50 (A549)	GI50 at 48 h [2]	GI50 (PANC-1)	GI50 (HL-60)
C/C=C(/C)C(=O)O[C@H]1[C@H](OC(=O)/C(C)=C\C)[C@]2(CO)[C@H](O)C[C@]3(C)C(=CC[C@@H]4[C@@]5(C)CC[C@H](O)[C@](C)(CO)[C@@H]5CC[C@]43C)[C@@H]2CC1(C)C	> 250 µM	> 250 µM	2.39 µM	1.94 µM	1.65 µM	4.63 µM	2.72 µM
C/C=C(/C)C(=O)O[C@H]1[C@H](OC(=O)C(C)CC)[C@]2(CO)[C@H](O)[C@H](O)[C@]3(C)C(=CC[C@@H]4[C@@]5(C)CC[C@H](O)C(C)(C)[C@@H]5CC[C@]43C)[C@@H]2CC1(C)C (some centres undefined)	> 250 µM	> 250 µM	12.5 µM	5.37 µM	6.53 µM	12.8 µM	4.21 µM
C/C=C(/C)C(=O)O[C@H]1[C@H](OC(C)=O)[C@]2(CO)[C@H](O)[C@H](O)[C@]3(C)C(=CC[C@@H]4[C@@]5(C)CC[C@H](O[C@@H]6O[C@H](C(=O)O)[C@@H](O)[C@H](O[C@@H]7OC[C@@H](O)[C@H](O)[C@H]7O)[C@H]6O[C@@H]6O[C@H](CO)[C@@H](O)[C@H](O)[C@H]6O)C(C)(C)[C@@H]5CC[C@]43C)[C@@H]2CC1(C)C [ERYNGIIOSIDE J]	> 250 µM	> 250 µM	5.08 µM	4.3 µM	5.61 µM	11.5 µM	7.36 µM
C/C=C(/C)C(=O)O[C@H]1[C@H](OC(C)=O)[C@]2(CO)[C@H](O)C[C@]3(C)C(=CC[C@@H]4[C@@]5(C)CC[C@H](O[C@@H]6O[C@H](C(=O)O)[C@@H](O)[C@H](O[C@@H]7OC[C@H](O)[C@H](O)[C@H]7O)[C@H]6O[C@@H]6O[C@H](CO)[C@@H](O)[C@H](O)[C@H]6O)C(C)(C)[C@@H]5CC[C@]43C)[C@@H]2CC1(C)C [ERYNGIIOSIDE L]	> 250 µM	> 250 µM	11.3 µM	8.35 µM	8.71 µM	13 µM	8.41 µM
C/C=C(/CC)C(=O)O[C@H]1[C@H](OC(C)=O)[C@]2(CO)[C@H](O)[C@H](O)[C@]3(C)C(=CC[C@@H]4[C@@]5(C)CC[C@H](O[C@@H]6O[C@H](C(=O)O)[C@@H](O)[C@H](O[C@@H]7OC[C@H](O)[C@H](O)[C@H]7O)[C@H]6O[C@@H]6O[C@H](CO)[C@@H](O)[C@H](O)[C@H]6O)C(C)(C)[C@@H]5CC[C@]43C)[C@@H]2CC1(C)C [SANICULASAPONIN III]	> 250 µM	> 250 µM	8.51 µM	4.73 µM	3.54 µM	16 µM	7.11 µM

Continued, in another order:

IC50 [1]	IC50 (DNA topoisomerase 1)	Structure (SMILES)	GI50 (PC-3)	GI50 (A549)	GI50 at 48 h [2]	GI50 (PANC-1)	GI50 (HL-60)
> 250 µM	> 250 µM	C/C=C(/C)C(=O)O[C@H]1[C@H](OC(=O)C(C)CC)[C@]2(CO)[C@H](O)C[C@]3(C)C(=CC[C@@H]4[C@@]5(C)CC[C@H](O)C(C)(C)[C@@H]5CC[C@]43C)[C@@H]2CC1(C)C (some centres undefined)	4.11 µM	1.7 µM	3.67 µM	9.6 µM	4.6 µM
> 250 µM	> 250 µM	C/C=C(/C)C(=O)O[C@H]1[C@H](OC(=O)C(C)C)[C@]2(CO)[C@H](O)C[C@]3(C)C(=CC[C@@H]4[C@@]5(C)CC[C@H](O)[C@](C)(CO)[C@@H]5CC[C@]43C)[C@@H]2CC1(C)C	2.34 µM	3.81 µM	2.71 µM	8 µM	2.53 µM
